Experimental data reported in publication PMC4133124 (Clinical pharmacokinetics, 2014).
Where two headings read alike, the source gives them in different places.

Assays:
[1] = Sitagliptin pharmacokinetics published in the literature; assay type: in vivo, human; settings: comparison with ref 9
[2] = system: engraftment of single unit UCB transplants; settings: single unit UCB HCT, sitagliptin 600 mg OD days −1 to +2; cited from earlier work
[3] = Sitagliptin plasma pharmacokinetics in adults after single-unit UCB HCT; assay type: in vivo, human
[4] = cited from earlier work
[5] = 600 mg OD, HCT population; ref Farag, S.S. et al. [9]; cited from earlier work
[6] = cited from earlier work; remark: listed apart in the source
[7] = bootstrap analysis median [5 – 95th percentiles], 200 data sets
[8] = population estimate (RSE%), 600 mg OD oral, HCT patients
[9] = 83 mg OD, ref Vincent, S.H. et al. [12]
[10] = 100 mg OD, ref Herman, G.A. et al. [14]
[11] = 100 mg OD, ref Kim, B.H. et al. [13]
[12] = 200 mg BID, ref Herman, G.A. et al. [16]
[13] = 600 mg OD, ref Bergman, A.J. et al. [10]
[14] = 600 mg OD, ref Herman, G.A. et al. [11]

Structure (SMILES): N[C@@H](CC(=O)N1CCn2c(nnc2C(F)(F)F)C1)Cc1cc(F)c(F)cc1F [sitagliptin]
- clearance (dose/AUC0-∞) in non-HCT populations lower than in HCT (Farag et al.) [1]: 50%
- median time to engraftment [2]: 21 days
- VC/F (second line so labelled, row r8) [3, 7]: 207.51 [160.11 – 249.82] L
- ka [3, 7]: 0.22 [0.20 – 0.25] h^−1
- Vd/F ([3]; human, plasma, po, 600 mg): 176 L
- sitagliptin pharmacokinetics in the HCT population lower than published profiles ([3]; in vivo): ~ 50%
- CL/F, total apparent oral clearance [3, 8]: 84.79 (11.91) L/h
- Q/F, inter-compartmental distribution clearance [3, 8]: 14.29 (13.25) L/h
- VC/F (second line so labelled, row r8) [3, 8]: 217.62 (13.19) L
- ka, first order rate constant of absorption [3, 8]: 0.22 (7.47) h^−1
- protein-bound [4]: 34–46%
- AUC0-∞ [5]: 11661 ng·h/mL
- Cmax [5]: 1690 ng/mL
- AUC0-∞ [6, 9]: 2460.15 ng·h/mL
- Cmax [6, 9]: 309.14 ng/mL
- AUC0-∞ ([6]; 100 mg OD, ref Bergman, A. et al. [15]): 3470.28 ng·h/mL
- AUC0-∞ ([6]; 100 mg OD, ref Bergman, A. et al. [17]): 3217.74 ng·h/mL
- AUC0-∞ [6, 10]: 3523.23 ng·h/mL
- Cmax [6, 10]: 390.61 ng/mL
- AUC0-∞ [6, 11]: 2407.23 ng·h/mL
- Cmax [6, 11]: 383.17 ng/mL
- AUC0-12 (column AUC0-∞, footnote b) [6, 12]: 5987.45 ^b ng·h/mL
- Cmax [6, 12]: 928.66 ng/mL
- AUC0-24 (column AUC0-∞, footnote a) [6, 13]: 22772.81 ^a ng·h/mL
- Cmax [6, 13]: 3156.65 ng/mL
- AUC0-∞ [6, 14]: 22402.05 ng·h/mL
- Cmax [6, 14]: 3437.7 ng/mL
- renal elimination ([6]; glomerular filtration and active secretion): 87%
- administered dose metabolized via CYP3A and 2C8 ([6]; healthy volunteers and patients with type 2 diabetes mellitus): 16%
- bioavailability ([6]; healthy volunteers): 87%
